Measurements from patent US11976083B2, “Inhibitors of peptidylarginine deiminases” (Gilead Sciences, Inc., priority 2020, dated 2024).

Target: T1, human PAD4 (Homo sapiens, UniProt Q9UM07)
T1 construct: human PAD4 (NM_012387), A2-P663, was PCR amplified; His-SUMO (N, cleaved yes); made in house; host or cells: E. coli BL21(DE3)
Experiment: In vitro PAD4 BAEE biochemical assay
Details: BAEE substrate 3 mM, 5 nM PAD4, 2 mM calcium chloride; geometric mean of multiple experiments
How it was run: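 Recombinant human PAD4 (5 nM final) with 2 mM CaCl2 was preincubated with compound 30 min at 25 °C in MOPS buffer pH 7.6, then reacted with 3 mM BAEE for 2 h at 25 °C. After EDTA stop, released ammonia was detected by o-phthalaldehyde/DTT fluorescence (ex 405/em 535 nm); IC50 from four-parameter fit, geometric mean.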

T1 sequence (Q9UM07 2-663): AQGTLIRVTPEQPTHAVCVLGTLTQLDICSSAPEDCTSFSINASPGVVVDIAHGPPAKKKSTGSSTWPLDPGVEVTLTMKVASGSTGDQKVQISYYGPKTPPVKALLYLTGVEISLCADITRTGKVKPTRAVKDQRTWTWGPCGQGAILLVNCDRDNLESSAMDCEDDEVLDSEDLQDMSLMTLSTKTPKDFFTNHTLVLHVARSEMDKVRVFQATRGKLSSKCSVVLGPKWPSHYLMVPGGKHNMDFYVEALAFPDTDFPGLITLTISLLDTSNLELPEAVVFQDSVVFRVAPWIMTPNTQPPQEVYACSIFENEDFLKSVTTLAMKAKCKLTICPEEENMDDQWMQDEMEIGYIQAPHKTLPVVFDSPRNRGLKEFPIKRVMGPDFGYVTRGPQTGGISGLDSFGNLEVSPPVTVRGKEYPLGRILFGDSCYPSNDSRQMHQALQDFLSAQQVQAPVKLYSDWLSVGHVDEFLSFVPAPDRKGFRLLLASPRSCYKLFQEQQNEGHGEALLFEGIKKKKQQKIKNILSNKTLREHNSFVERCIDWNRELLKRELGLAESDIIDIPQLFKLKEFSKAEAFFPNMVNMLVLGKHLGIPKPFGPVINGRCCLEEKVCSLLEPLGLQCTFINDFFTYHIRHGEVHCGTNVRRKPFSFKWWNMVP

Row | IC50 | Structure (SMILES)
1 | 0.016 µM | C[C@H]1NC(=O)C2(CC2)OCCCC(F)(F)Cn2c(-c3nc4cc(C(=O)N5C[C@H](N)[C@@H]6CC[C@H]5C6)cc(F)c4n3C3CC3)cc3ccc1nc32 [Example 773, (11~{R})-17-[5-[(1~{S},4~{R}, 5~{R})-4-amino-2-azabicyclo [3.2.1]octane-2-carbonyl]-1-cyclopropyl-7-fluoro-benzimidazol-2-yl]-3,3-difluoro-11-methyl-spiro[7-oxa-1,10,19-triazatricyclo[10.5.2.0^ {15,18}]nonadeca-12(19),13,15(18),16-tetraene-8,1′-cyclopropane]-9-one]
2 | 0.027 µM | COc1cc(C(=O)N2C[C@H](N)[C@@H]3CC[C@H]2C3)cc2nc(-c3cc4ccc5nc4n3CCCCC[C@@H]3C[C@@]3(C)C(=O)N[C@@H]5C)n(C)c12 [Example 917, (2~{R},5~{R},7~{R})-14-[5-[(1~{S),4~{R},5~{R})-4-amino-2-azabicyclo[3.2.1]octane-2-carbonyl]-7-methoxy-1-methyl-benzimidazol-2-yl]-2,5-dimethyl-3,13,19-triazatetracyclo[11.5.2.0^ {5,7}.0^{16,20}]icosa-1(19), 14,16(20),17-tetraen-4-one]
3 | 0.104 µM | CCOCCn1c(-c2cc3ccc4nc3n2CCCCCCC(C)(C)C(=O)N[C@@H]4C)nc2cc(C(=O)N[C@H]3CNCC[C@@H]3F)c(F)cc21 [Example 425, 1-(2-ethoxyethyl)-6-fluoro-~{N}-[(3~{S},4~{S})-4-fluoro-3-piperidyl]-2-[(11~{R})-8,8,11-trimethyl-9-oxo-1,10,19-triazatricyclo[10.5.2.0^{15,18}]nonadeca-12(19),13,15(18),16-tetraen-17-yl]benzimidazole-5-carboxamide]
4 | 0.037 µM | C[C@H]1NC(=O)c2cc(Cl)ncc2CCCCCn2c(-c3nc4cc(C(=O)N[C@H]5CNCC[C@@H]5F)c(F)cc4n3C3CC3)cc3ccc1nc32 [Example 356, 2-[(2~{R})-7-chloro-2-methyl-4-oxo-3,8,16,22-tetrazatetracyclo[14.5.2.0^{5,10).0^{19,23}]tricosa-1(22),5,7,9,17,19(23),20-heptaen-17-yl]-1-cyclopropyl-6-fluoro-~ {N}-[(3~{S},4~{S})-4-fluoro-3-piperidyl]benzimidazole-5-carboxamide]
5 | 0.074 µM | COc1cc(C(=O)N2C[C@@H](O)C[C@@H](N)[C@H]2C)cc2nc(-c3cc4ccc5nc4n3CCCCCCC(C)(C)C(=O)N[C@@H]5C)n(C)c12 [Example 800, (11~{R})-17-[5-[(2~{R},3~{R}, 5~{S})-3-amino-5-hydroxy-2-methyl-piperidine-1-carbonyl]-7-methoxy-1-methyl-benzimidazol-2-yl]-8,8,11-trimethyl-1,10,19-triazatricyclo [10.5.2.0^{15,18}]nonadeca-12,14,16,18-tetraen-9-one]
6 | 0.028 µM | C[C@H]1NC(=O)[C@@H]2C[C@@H]2CCCC(F)(F)Cn2c(-c3nc4cc(C(=O)N5C[C@H](N)[C@@H]6CC[C@H]5C6)cc(F)c4n3C3CC3)cc3ccc1nc32 [Example 682, (2~{R},5~{R},7~{S})-14-[5-[(1~{S},4~{R},5~{R})-4-amino-2-azabicyclo[3.2.1]octane-2-carbonyl]-1-cyclopropyl-7-fluoro-benzimidazol-2-yl]-11,11-difluoro-2-methyl-3,13,19-triazatetracyclo[11.5.2.0^ {5,7}.0^{16,20}] icosa-1(19),14,16(20), 17-tetraen-4-one]
7 | 0.019 µM | COc1cc(C(=O)N2C[C@H](N)[C@@H]3CC[C@H]2C3)cc2nc(-c3cc4ccc5nc4n3CCCCC[C@@]3(F)C[C@H]3C(=O)N[C@@H]5C)n(C)c12 [Example 711, (2~{R},5~{S},7~{R})-14-[5-[(1~{S),4~{R},5~{R})-4-amino-2-azabicyclo[3.2.1]octane-2-carbonyl]-7-methoxy-1-methyl-benzimidazol-2-yl]-7-fluoro-2-methyl-3,13,19-triazatetracyclo[11.5.2.0^ {5,7}.0^{16,20}]icosa-1(19), 14,16(20),17-tetraen-4-one]
8 | 0.031 µM | C[C@H]1NC(=O)c2ccc(Cl)nc2CCCCCn2c(-c3nc4cc(C(=O)N5C[C@H](N)CC[C@@H]5C)cc(F)c4n3C3CC3)cc3ccc1nc32 [Example 807, (2~{R})-17-[5-[(2~{S},5~{R})-5-amino-2-methyl-piperidine-1-carbonyl]-1-cyclopropyl-7-fluoro-benzimidazol-2-yl]-8-chloro-2-methyl-3,9,16,22-tetrazatetracyclo[14.5.2.0^ {5,10}.0^{19,23}]tricosa-1(21),5(10),6,8,17,19,22-heptaen-4-one]
9 | 0.062 µM | CO[C@@H]1CCN(C(=O)c2cc(F)c3c(c2)nc(-c2cc4ccc5nc4n2CC(F)(F)/C=C/C[C@@H]2C[C@H]2C(=O)N[C@@H]5C)n3C)C[C@@H]1N [Example 739]
10 | 0.029 µM | C[C@H]1NC(=O)[C@@H]2C[C@H]2CCCC(F)(F)Cn2c(-c3nc4cc(C(=O)N5C[C@H](N)[C@@H]6CC[C@H]5C6)cc(F)c4n3[C@H]3C[C@H]3C(F)F)cc3ccc1nc32 [Example 755, (2~{R},5~{R},7~{R})-14-[5-[(1~{S},4~{R},5~{R})-4-amino-2-azabicyclo[3.2.1]octane-2-carbonyl]-1-[(1~{S},2~{R})-2-(difluoromethyl)cyclopropyl]-7-fluoro-benzimidazol-2-yl]-11,11-difluoro-2-methyl-3,13,19-triazatetracyclo[11.5.2.0^ {5,7}.0^{16,20}]icosa-1(19),14,16(20),17-tetraen-4-one]
11 | 0.039 µM | COc1cc(C(=O)N2[C@H]3CC[C@@H]2[C@H](N)C3)cc2nc(-c3cc4ccc5nc4n3CCCCCN(C)C(=O)N[C@@H]5C)c(C)n12 [Example 210, (10~{R})-16-[7-[(1~{R},2~{R},4~{S})-2-amino-7-azabicyclo[2.2.1]heptane-7-carbonyl]-5-methoxy-3-methyl-imidazo[1,2-a]pyridin-2-yl]-7,10-dimethyl-1,7,9,18-tetrazatricyclo[9.5.2.0^{14,17}]octadeca-11(18),12,14(17),15-tetraen-8-one]
12 | 0.051 µM | COc1cc(C(=O)N2C[C@H](N)[C@@H]3CC[C@H]2C3)cc2nc(-c3cc4ccc5nc4n3CCCCCCC(C)(C)C(=O)N[C@@H]5C)c(C)n12 [Example 928, (11~{R})-17-[7-[(1~{S},4~{R}, 5~{R})-4-amino-2-azabicyclo [3.2.1]octane-2-carbonyl]-5-methoxy-3-methyl-imidazo [1,2-a]pyridin-2-yl]-8,8,11-trimethyl-1,10,19-triazatricyclo [10.5.2.0^{15,18}]nonadeca-12(19),13,15(18), 16-tetraen-9-one]
13 | 0.012 µM | COc1cc(C(=O)N2[C@H]3CC[C@@H]2[C@H](N)C3)cc2nc(-c3cc4ccc5nc4n3C/C=C\CCCCC(=O)N[C@@H]5C)c(C)n12 [Example 123, (3~{2},11~{R})-17-[7-[(1~{R},2~{R},4~{S})-2-amino-7-azabicyclo[2.2.1]heptane-7-carbonyl]-5-methoxy-3-methyl-imidazo[1,2-a]pyridin-2-yl]-11-methyl-1,10,19-triazatricyclo[10.5.2.0^{15,18}]nonadeca-3,12(19),13,15(18),16-pentaen-9-one]
14 | 0.024 µM | CO[C@@H]1CCN(C(=O)c2cc(F)c3c(c2)nc(-c2cc4ccc5nc4n2CCCCCc2nc4ccccc4nc2C(=O)N[C@@H]5C)n3C2CC2)C[C@@H]1N [Example 828, (2~{R})-21-[5-[(3~{S), 4~{R})-3-amino-4-methoxy-piperidine-1-carbonyl]-1-cyclopropyl-7-fluoro-benzimidazol-2-yl]-2-methyl-3,6,13,20,26-pentazapentacyclo [18.5.2.0^{5,14}.0^{7, 12}.0^{23,27}]heptacosa-1(26),5(14),6,8,10,12,21,23(27), 24-nonaen-4-one]
15 | 0.56 µM | COC(=O)[C@H]1CC[C@@H](NC(=O)c2cc(OC)c3c(c2)nc(-c2cc4ccc5nc4n2CCCCCCC(C)(C)C(=O)N[C@@H]5C)n3C)CN1 [Example 71, methyl (2~{R},5~{R})-5-[[7-methoxy-1-methyl-2-[(11~{R})-8,8,11-trimethyl-9-oxo-1,10,19-triazatricyclo[10.5.2.0^{15,18}]nonadeca-12(19),13,15(18),16-tetraen-17-yl]benzimidazole-5-carbonyl]amino]piperidine-2-carboxylate]
16 | 0.018 µM | C[C@H]1NC(=O)c2ccc(C(F)F)nc2CCCCCn2c(-c3nc4cc(C(=O)N5C[C@H](N)[C@@H]6CC[C@H]5C6)cc(F)c4n3C3CC3)cc3ccc1nc32 [Example 843, (2~{R})-17-[5-[(1~{S},4~ {R},5~{R})-4-amino-2-azabicyclo[3.2.1]octane-2-carbonyl]-1-cyclopropyl-7-fluoro-benzimidazol-2-yl]-8-(difluoromethyl)-2-methyl-3,9,16,22-tetrazatetracyclo [14.5.2.0^{5,10}.0^{19,23}] tricosa-1(22),5(10),6,8,17, 19(23),20-heptaen-4-one]
17 | 0.05 µM | C[C@H]1NC(=O)[C@H]2C[C@@H]2C/C=C/C(F)(F)Cn2c(-c3nc4cc(C(=O)N[C@H]5CNCC[C@@H]5F)c(F)c(F)c4n3C)cc3ccc1nc32 [Example 547, 2-[(2~{R},5~{S},7~ {S},9~{E})-11,11-difluoro-2-methyl-4-oxo-3,13,19-triazatetracyclo [11.5.2.0^{5,7}.0^{16,20}]icosa-1(19),9,14,16(20), 17-pentaen-14-yl]-6,7-difluoro-~ {N}-[(3~{S},4~{S})-4-fluoro-3-piperidyl]-1-methyl-benzimidazole-5-carboxamide]
18 | 0.048 µM | COc1cc(C(=O)N2C[C@H](N)[C@@H]3CC[C@H]2C3)cc2nc(-c3cc4ccc5nc4n3CC(F)(F)CCCCC(C)(C)C(=O)N[C@@H]5C)n(C)c12 [Example 943, (11~{R})-17-[5-[(1~{S},4~{R}, 5~{R})-4-amino-2-azabicyclo [3.2.1]octane-2-carbonyl]-7-methoxy-1-methyl-benzimidazol-2-yl]-3,3-difluoro-8,8,11-trimethyl-1,10,19-triazatricyclo[10.5.2.0^{15,18}] nonadeca-12(19), 13,15(18),16-tetraen-9-one]
